Laboratory results from patent US8669315B2, “Polycarbonate compositions and methods for the manufacture and use thereof” (SABIC Innovative Plastics IP B.V., priority 2011, dated 2014).

Tests used:
[1] = target: T1, recombinant human estradiol receptors (rhER) alpha (α) (Homo sapiens, UniProt P03372); assay: in vitro competitive binding assay, displacement of [3H]estradiol from rhER alpha; settings: running text, highest concentration 2.5×E−4 M
T1 sequence (P03372 1-595): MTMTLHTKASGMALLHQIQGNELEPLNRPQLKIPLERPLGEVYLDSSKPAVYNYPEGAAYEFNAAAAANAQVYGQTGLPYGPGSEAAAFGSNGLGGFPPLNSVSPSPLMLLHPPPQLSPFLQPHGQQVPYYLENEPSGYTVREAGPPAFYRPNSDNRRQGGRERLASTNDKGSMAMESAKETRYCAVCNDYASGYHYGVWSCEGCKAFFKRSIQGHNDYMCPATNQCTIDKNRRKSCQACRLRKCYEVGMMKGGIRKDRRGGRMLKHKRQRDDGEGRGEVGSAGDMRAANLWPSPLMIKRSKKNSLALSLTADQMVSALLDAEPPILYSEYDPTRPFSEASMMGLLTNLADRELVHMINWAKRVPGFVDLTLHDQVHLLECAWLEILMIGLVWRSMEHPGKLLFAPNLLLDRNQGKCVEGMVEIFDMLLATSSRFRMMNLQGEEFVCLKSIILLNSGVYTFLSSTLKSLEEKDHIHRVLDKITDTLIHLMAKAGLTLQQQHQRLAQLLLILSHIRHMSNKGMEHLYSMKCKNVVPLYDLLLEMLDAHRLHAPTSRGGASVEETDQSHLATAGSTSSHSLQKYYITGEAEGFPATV

[2] = target: recombinant human estradiol receptors (rhER) beta 1 (β1) (Homo sapiens, UniProt Q92731); assay: in vitro competitive binding assay, displacement of [3H]estradiol from rhER beta 1; settings: highest concentration 2.5×E−4 M

| Compound | estradiol binding / displacement at the alpha estradiol receptor (in words) [1] | estradiol binding / displacement at the beta estradiol receptor (in words) ([2]; running text) | other results |
| --- | --- | --- | --- |
| Biphenol [Example 7] | no displacement | no estradiol binding | estradiol binding / displacement at the alpha estradiol receptor (in words) ([1]; listed as biphenol): no estradiol binding |
| CC(C)(c1ccccc1)c1ccc(O)cc1 [B, p-Cumyl Phenol, reference compound] | displace estradiol | displace estradiol | – |
| Tetra Methyl BPA [Example 2] | – | no detectible estradiol displacement | estradiol binding / displacement at the beta estradiol receptor (in words) ([2]; listed as tetra methyl bisphenol-A): no estradiol binding |
| Oc1ccc(Oc2ccc(O)cc2)cc1 [C, Dihydroxy Diphenyl Ether, reference compound] | – | displace estradiol | – |
| COC(=O)CCC(C)(c1ccc(O)cc1)c1ccc(O)cc1 [F, Diphenolic Acid Methyl Ester, reference compound] | displace estradiol | displace estradiol | – |
| CC(C)(c1ccc(O)cc1)c1cccc(C(C)(C)c2ccc(O)cc2)c1 [L, Bisphenol M, reference compound] | displace estradiol at low concentrations | displace estradiol at low concentrations | – |
| CC(c1ccccc1)(c1ccc(O)cc1)c1ccc(O)cc1 [D, Bisphenol Acetophenone, reference compound] | displace estradiol | – | – |
| O=C1OC(c2ccc(O)cc2)(c2ccc(O)cc2)c2ccccc21 [P, Phenolphthalein, reference compound] | – | estradiol displacement at low concentration | – |
| Cc1cc(C2(c3ccc(O)c(C)c3)CCCCC2)ccc1O [H, Dimethyl Cyclohexyl Bisphenol, reference compound] | displacement of estradiol | displacement of estradiol | – |
| Cc1cc(O)ccc1O [Example 9, Methyl Hydroquinone] | – | no alpha or beta estradiol displacement | estradiol binding / displacement at the beta estradiol receptor (in words) ([2]; running text, listed as methyl hydroquinone): no estradiol binding |
| Oc1cccc(O)c1 [Example 5, Resorcinol] | no detectible estradiol displacement | no detectible estradiol displacement | estradiol binding / displacement at the alpha estradiol receptor (in words) ([1]; listed as resorcinol): no estradiol binding; estradiol binding / displacement at the beta estradiol receptor (in words) ([2]; running text, listed as resorcinol): no estradiol binding |
| Bis Hydroxy Phenyl Menthane [reference compound] | displace estradiol at low concentrations | displace estradiol at low concentrations | – |
| O=C1c2ccccc2C(c2ccc(O)cc2)(c2ccc(O)cc2)N1c1ccccc1 [Example 4, N-Phenyl Phenolphthalein Bisphenol] | no detectible estradiol displacement | no detectible estradiol displacement | estradiol binding / displacement at the alpha estradiol receptor (in words) ([1]; listed as N-phenyl phenolphthalein bisphenol): no estradiol binding; estradiol binding / displacement at the beta estradiol receptor (in words) ([2]; running text, listed as N-phenyl phenolphthalein bisphenol): no estradiol binding |
| Fluorenone Bis o-Cresol [J, reference compound] | – | displace estradiol at low concentrations | – |
